pIC50: −log10 of the molar value. Ends that are not written are not given here.
Experiments:
Acid stability = format: physicochemical; conditions: in 0.2 M HCl, 37 °C, 0-120 min, RP-UHPLC peak area as % of initial, n = 3
Procedure: 0.1 M of purified roseltide rT1 was dissolved in 0.2 M HCl or phosphate buffered saline (PBS) (control) and incubated at 37 °C. Samples were collected at various time points (0, 15, 30, 45, 60 and 120 min).

PAR2-cAMP-CHO cells = assay: Glosensor cAMP assay, neutrophil elastase-stimulated cAMP accumulation; format: cell-based, Chinese Hamster; conditions: co-incubation of HNE with peptide; CHO-K1 co-expressing PAR2 and Glosensor cAMP biosensor; luminescence 20 min, area under the curve; n = 3
Procedure: Huh7 (human liver carcinoma cells), A549 (human lung adenocarcinoma epithelial cells) cells, and Chinese Hamster Ovary-K1 cells (CHO-K1) were cultured in Dulbecco’s Modified Eagle’s Medium (DMEM)/Ham’s F12 containing 15 mM HEPES and L-glutamine and supplemented with 10% fetal bovine serum, 100 U/mL of penicillin, and streptomycin. The cells were grown in a 5% CO2 humidified incubator at 37 °C. CHO-K1 cells were transfected with pGlosensor-20F plasmid by electroporation and selected using 500 μg/mL hygromycin. CHO-K1 cells stably expressing the pGlosensor-20F construct (cAMP-CHO) were then transfected with pCMV6-XL5 encoding PAR2 receptor (NM 005242.3) and selected using 500 μg/mL G418. Stable cell lines co-expressing both pGlosensor-20F and PAR2 receptor constructs (PAR2-cAMP-CHO) were maintained with 500 μg/mL hygromycin and 500 μg/mL G418.
Glosensor cAMP assays were performed according to the manufacturer’s instructions. […] Luminescent intensity was measured using a microplate reader (Tecan Infinite 200 Pro, Switzerland); the plate was pre-read for 30 s to establish basal luminescent level. Following treatment, luminescent levels were continuously monitored for 20 min. The results are presented as fold change relative to basal luminescent levels and were quantified using the area under the curve.

pepsin = pepsin (Sus scrofa, UniProt P00791); conditions: 0.1 M peptide, 0.2 M HCl, pepsin 50:1 (w/v), 37 °C, 0-120 min, RP-UHPLC peak area, n = 3
Sequence of pepsin (P00791 60-385): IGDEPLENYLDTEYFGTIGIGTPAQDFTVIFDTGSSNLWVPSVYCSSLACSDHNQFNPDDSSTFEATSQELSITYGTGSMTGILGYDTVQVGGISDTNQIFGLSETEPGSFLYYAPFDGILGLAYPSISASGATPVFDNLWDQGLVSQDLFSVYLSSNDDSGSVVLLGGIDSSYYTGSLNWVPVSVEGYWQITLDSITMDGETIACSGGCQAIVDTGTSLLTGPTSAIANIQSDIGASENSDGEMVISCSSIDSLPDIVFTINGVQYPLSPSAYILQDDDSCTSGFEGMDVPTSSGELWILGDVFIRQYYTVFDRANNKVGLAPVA
Procedure: (§1) 0.1 M of purified roseltide rT1 was dissolved in 100 mM Tris buffer (pH 8) and incubated with trypsin (Catalog number: T1426, Roche Applied Science, US) in a 50:1 (w/v) ratio at 37 °C. 0.1 M of purified roseltide rT1 was dissolved in 0.2 M HCl and incubated with pepsin (Catalog number: 03117901001, Roche Applied Science, US) in a 50:1 (w/v) ratio at 37 °C. […] Samples were collected at various time points (0, 15, 30, 45, 60 and 120 min).
(§2) All collected samples from various stability assays were analyzed by RP-UHPLC with a linear gradient of mobile phase A (0.05% TFA/H2O) and mobile phase B (0.05% TFA/ACN) on C18 column (3.6 μm particle size; 2.1 mm internal diameter; 10 cm length) (Phenomenex, US). The resulting peaks were collected and the identified by MALDI-TOF MS. The results were expressed as percentage of initial concentration using the peak area of the UHPLC profile.

trypsin = trypsin (Bos taurus, UniProt P00760); conditions: 0.1 M peptide, 100 mM Tris buffer pH 8, trypsin 50:1 (w/v), 37 °C, 0-120 min, RP-UHPLC peak area, n = 3
Sequence of trypsin (P00760 24-246): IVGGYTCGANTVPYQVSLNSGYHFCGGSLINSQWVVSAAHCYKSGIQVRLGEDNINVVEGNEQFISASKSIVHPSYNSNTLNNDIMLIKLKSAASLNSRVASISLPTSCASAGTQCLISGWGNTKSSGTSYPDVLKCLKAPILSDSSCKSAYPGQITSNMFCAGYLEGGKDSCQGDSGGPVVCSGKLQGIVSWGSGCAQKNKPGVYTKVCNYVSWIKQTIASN
Procedure: as §1, §2

[1] = biological target: T1, Human neutrophil elastase (HNE) (Homo sapiens, UniProt P08246); assay: Human neutrophil elastase inhibition assay; format: biochemical; conditions: 1.75 U/mL HNE, 0.6 mM N-Methoxysuccinyl-Ala-Ala-Pro-Val p-nitroanilide, 100 mM Tris buffer pH 8.0, 37 °C, absorbance 405 nm for 1 h, normalized initial velocity, mean n = 3; read-out: IC50, enzymatic activity of human neutrophil elastase
T1 construct: purchased Sigma-Aldrich or ThermoFisher Scientific (general statement only)
T1 sequence (P08246 30-267): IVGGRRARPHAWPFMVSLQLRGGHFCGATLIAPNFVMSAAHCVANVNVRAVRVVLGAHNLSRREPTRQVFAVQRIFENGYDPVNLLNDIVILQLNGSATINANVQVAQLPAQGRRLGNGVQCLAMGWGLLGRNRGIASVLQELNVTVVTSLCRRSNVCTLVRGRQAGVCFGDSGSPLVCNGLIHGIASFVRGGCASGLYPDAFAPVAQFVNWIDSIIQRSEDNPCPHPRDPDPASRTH
Procedure: Human neutrophil elastase (HNE) activity was determined by measuring the release of p-nitroanilide at 405 nm at 37 °C using N-Methoxysuccinyl-Ala-Ala-Pro-Val p-nitroanilide as substrates. Purified roseltide rT1 was incubated with 1.75 U/mL HNE and 0.6 mM substrate in 100 mM Tris buffer (pH 8.0) at 37 °C; absorbance was measured continuously for 1 h. […] The results were presented as normalized initial velocity.

Human serum stability = format: in vitro ADME; conditions: 0.1 M peptide, 25% human serum in DMEM without phenol red, 37 °C, 0, 24 and 48 h, ethanol precipitation, RP-UHPLC peak area, n = 3
Procedure: 0.1 M of purified roseltide rT1 was prepared in 25% human serum in DMEM medium without phenol red. The test samples were incubated at 37 °C. DALK was used as a positive control. Samples were collected at various time points (0, 24 and 48 h). The collected samples were subjected to protein precipitation with 100% ethanol and centrifugation at 180,000 g for 5 min at 4 °C. The supernatant was collected for analysis.

[2] = biological target: human neutrophil elastase (human) (UniProt P08246)

With “CIPRGGICLVALSGCCNSPGCIFGICA (also: bicyclic or more (positions not given here)) [roseltide rT1, 27-residue cystine-knot peptide purified from Hibiscus sabdariffa calyces; disulfides Cys1-Cys16, Cys8-Cys21, Cys15-Cys26]” the “acid stability (resistance against degradation)” value (Acid stability) was “resistant”, the “effect on human neutrophil elastase-stimulated cAMP accumulation” value (PAR2-cAMP-CHO cells) was “significantly suppressed” and the “pepsin stability (resistance against degradation)” value (pepsin) was “resistant”. The “trypsin stability (resistance against degradation)” value (trypsin) was “resistant”, the pIC50 [1] was 6.33 and the “human serum stability (resistance against degradation)” value (Human serum stability) was “resistant”.

Substance roseltide rT1 (peptide) has an inhibition of the enzymatic activity of human neutrophil elastase (release of p-nitroanilide from N-methoxysuccinyl-Ala-Ala-Pro-Val p-nitroanilide, 405 nm, 37 °C, 100 mM Tris pH 8.0), IC50 [2] of 0.47 μM.

— publication PMC5171801, “Identification and Characterization of Roseltide, a Knottin-type Neutrophil Elastase Inhibitor Derived from Hibiscus sabdariffa” (Scientific Reports, 2016)
